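Exposure lasted 48 hours, with cells grown in 96-well plates and compounds tested at five concentrations. GI50 = concentration required for 50% inhibition of growth.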 The source made the active and inactive calls. Cut-off read from the data, not from the text of the source: active = GI50 up to about 1.1 µM and inactive = higher.
How the values were obtained:
Assay in all cases: inhibition of tumour cell growth, NCI panel, 48 h
[1] = tested on: SW-620
[2] = tested on: SNB-19
[3] = tested on: KM12
[4] = tested on: NCI/ADR-RES
[5] = tested on: NCI-H460
[6] = tested on: U-251
[7] = tested on: HCT-15
[8] = tested on: OVCAR-5
[9] = tested on: 786-0
[10] = tested on: ACHN
[11] = tested on: OVCAR-4
[12] = tested on: Malme-3M
[13] = tested on: Hs-578T
[14] = tested on: A549
[15] = tested on: SN12C
[16] = tested on: MOLT-4
[17] = tested on: MDA-MB-231
[18] = tested on: CCRF-CEM
[19] = tested on: HOP-62
[20] = tested on: SNB-75

Compound | GI50 [1] | GI50 [2] | GI50 [3] | GI50 [4] | GI50 [5] | GI50 [6] | GI50 [7] [µM] | GI50 [8] | GI50 [9] | GI50 [10] | GI50 [11] | GI50 [12] | GI50 [13] | GI50 [14] | GI50 [15] | GI50 [16] | GI50 [17] | GI50 [18] | GI50 [19] | GI50 [20]
c1ccc(-c2sc(-c3ccccc3)c3c2C2CCC3C2)cc1 | 43.3 µM (inactive) | > 100 µM (inactive) | 30.6 µM (inactive) | 29.8 µM (inactive) | 28.9 µM (inactive) | 38.2 µM (inactive) | 31.6 | 53.8 µM (inactive) | 45.9 µM (inactive) | 36.1 µM (inactive) | > 100 µM (inactive) | 31.6 µM (inactive) | 20 µM (inactive) | 28.6 µM (inactive) | 45.3 µM (inactive) | 52.4 µM (inactive) | 27.6 µM (inactive) | 43.9 µM (inactive) | 38.2 µM (inactive) | –
O=C(c1ccccc1)c1ccc2[nH]c(-c3c(Cl)c(Cl)c(Cl)c(Cl)c3C(=O)N/N=C/c3ccc(Cl)cc3)nc2c1 | 54.3 µM (inactive) | 43 µM (inactive) | 48.4 µM (inactive) | 47.8 µM (inactive) | – | 44.1 µM (inactive) | 24.2 | 64.7 µM (inactive) | 31.2 µM (inactive) | 19.9 µM (inactive) | 30.3 µM (inactive) | 37.4 µM (inactive) | 57.9 µM (inactive) | 33 µM (inactive) | 39.2 µM (inactive) | 18.3 µM (inactive) | 20.7 µM (inactive) | 18.3 µM (inactive) | 31.7 µM (inactive) | 47 µM (inactive)
COC(=O)C1=C(C)NC2=C(C(=O)c3ccccc32)C1c1cn(-c2ccccc2)nc1-c1ccccc1 (configuration not stated) | > 100 µM (inactive) | > 48.1 µM (inactive) | 7.93 µM (inactive) | 70.6 µM (inactive) | – | 15.5 µM (inactive) | 30.1 | > 100 µM (inactive) | > 87.1 µM (inactive) | 17.2 µM (inactive) | > 100 µM (inactive) | > 84.7 µM (inactive) | > 100 µM (inactive) | 12 µM (inactive) | > 100 µM (inactive) | 2.96 µM (inactive) | > 100 µM (inactive) | 23.4 µM (inactive) | > 100 µM (inactive) | 1.56 µM (inactive)
C=C(C(=O)O)[C@@H]1C[C@@H]2O[C@H]1CC(C)=CCC/C(C)=C/CC[C@@]2(C)O | > 100 µM (inactive) | > 100 µM (inactive) | > 100 µM (inactive) | > 100 µM (inactive) | > 100 µM (inactive) | > 100 µM (inactive) | > 100 | > 100 µM (inactive) | > 100 µM (inactive) | > 100 µM (inactive) | > 100 µM (inactive) | > 100 µM (inactive) | > 100 µM (inactive) | > 100 µM (inactive) | > 100 µM (inactive) | > 100 µM (inactive) | > 100 µM (inactive) | > 100 µM (inactive) | – | > 100 µM (inactive)
CC(C)(C)c1cc(C(C)(C)C)c(SSc2c(C(C)(C)C)cc(C(C)(C)C)c(O)c2O)c(O)c1O | 4.99 µM (inactive) | 11.7 µM (inactive) | 12.6 µM (inactive) | 19.1 µM (inactive) | 3.89 µM (inactive) | 10.5 µM (inactive) | 6.19 | 15.8 µM (inactive) | 6.4 µM (inactive) | 11.4 µM (inactive) | 3.55 µM (inactive) | 21.4 µM (inactive) | 10.5 µM (inactive) | 6.75 µM (inactive) | 10.9 µM (inactive) | 2.67 µM (inactive) | 14.7 µM (inactive) | 2.5 µM (inactive) | – | 14.8 µM (inactive)
O=C(O)c1c(CC(Cc2ccc3c(c2)CCCC3)C(=O)O)ccc2c1CCCC2 (configuration not stated) | > 100 µM (inactive) | > 100 µM (inactive) | > 100 µM (inactive) | > 100 µM (inactive) | > 100 µM (inactive) | > 100 µM (inactive) | > 100 | > 100 µM (inactive) | > 100 µM (inactive) | > 100 µM (inactive) | – | > 100 µM (inactive) | > 100 µM (inactive) | > 100 µM (inactive) | > 100 µM (inactive) | > 100 µM (inactive) | > 100 µM (inactive) | > 100 µM (inactive) | > 100 µM (inactive) | > 100 µM (inactive)
CCCCCCCCCCCCOP(=O)(O)OCC(N)C(=O)O (configuration not stated) | 44.4 µM (inactive) | 16.3 µM (inactive) | – | 36.3 µM (inactive) | 13.6 µM (inactive) | 11.9 µM (inactive) | 17 | 40.8 µM (inactive) | 30.2 µM (inactive) | 34.1 µM (inactive) | 39 µM (inactive) | > 100 µM (inactive) | 10.3 µM (inactive) | 24.7 µM (inactive) | 22.1 µM (inactive) | 11.2 µM (inactive) | 23.9 µM (inactive) | – | 15.4 µM (inactive) | 18.5 µM (inactive)
